Key:
[1] = stability of the formed compound at room temperature; format: physicochemical
Text: (§1) Fluorouracil Glycolate is formed by a chemical reaction between fluorouracil and glycolic acid, in an acid-base reaction under the Lowry-Bronsted model in a typical acid-base reaction. The new unique compound when formed is stable at room temperature for approximately one year. The molecular weight of the new compound is 205.72. The magic wart cream formulation, a thick cream resembling peanut butter, has a consistency designed for easy application to the lesions with a toothpick. This is to eliminate any messy, troublesome dribbling as this was a problem encountered early and then overcome on a trial and error basis, resulting in the thicker consistency. By applying the magic wart cream to only the center of the wart, and not to the edges, it focuses the target of the high-sulfur containing, amino acid rich matrix of keratin to where the fluorouracil glycolate can pool. Then it forms a depot within the small socket of the lesion. This dictates the nature of the liberation absorption and distribution the drug delivery system.

[2] = systemic absorption after topical application to the lesion; format: in vivo; details: saturation of the lesion
Text: as §1

O=C(O)CO.O=c1[nH]cc(F)c(=O)[nH]1 [Fluorouracil Glycolate]
stable at room temperature (duration) [1]: approximately one | systemic absorption [2]: without observed systemic absorption

Reference: US10226463B2, “Fluorouracil glycolate compound for the treatment of warts, molluscum contagiosum” (priority 2012, dated 2019)
